Experimental data as given in US20230364096A1, “USE OF A COMBINATION COMPRISING A BTK INHIBITOR FOR TREATING CANCERS” (BEIGENE SWITZERLAND GMBH, priority 2016, published 2023).

Key:
[1] = tested on: REC-1/NK92MI MCL xenograft; assay: Human REC-1/NK92MI mantle cell lymphoma xenograft model; assay type: in vivo, NOD/SCID mice; conditions: Compound 1 2.5 mg/kg p.o. BID, obinutuzumab 2 mg/kg i.p. QW
Method: REC-1 cells were cultured in RPMI1640 complete medium supplemented with 10% (v/v) fetal bovine serum, and 100 µg/mL of penicillin and streptomycin. NK92MI/CD16V cell line, overexpressing CD16 and FcRγ chain, was established from parental cell line NK92MI. The cells were maintained in MEM alpha supplemented with 0.2 mM inositol; 0.1 mM 2-mercaptoethanol; 0.02 mM folic acid; 1×NEAA; adjust to a final concentration of 20% (v/v) fetal bovine serum and 100 µg/mL of penicillin and streptomycin. […]
(§1) On day 3 after inoculation, animals were randomly divided into four groups with 12 mice per group. […] Treatments were administered in a volume of 10 mL/kg body weight, assessed immediately before dosing and the volume dosed was adjusted accordingly. […] After implantation, primary tumor volume was measured in two dimensions using a calliper.
(§2) Individual body weight was recorded twice weekly, with mice being monitored daily for clinical signs of toxicity for the duration of the study. […]
Tumor volume was calculated using the formula: V = 0.5 × (a × b^2) where a and b are the long and short diameters of the tumor, respectively. Tumor growth inhibition (TGI) was calculated using the following formula: […]

TMD-8 DLBCL xenograft = assay: Human TMD-8 DLBCL xenograft model; assay type: in vivo, mice; conditions: for Tumor growth inhibition (TGI): day 46, Compound 1 7.5 mg/kg p.o. BID, obinutuzumab 10 mg/kg i.p. QW
Method: (§3) TMD-8 DLBCL cells were cultured in RPMI1640 complete medium supplemented with 10% (v/v) fetal bovine serum, and 100 µg/mL of penicillin and streptomycin. On the day of implantation, culture medium was replaced with fresh medium. Four hours later, media was removed and cells were collected as described above. Cells were re-suspended in cold (4° C.) PBS and same volume of matrigel was added to give a final concentration of 5×10^7 cells/mL for TMD-8 cells. Re-suspended cells were placed on ice prior to inoculation. The right flank region of each mouse was cleaned with 75% ethanol prior to cell inoculation. Animals were then injected subcutaneously with 1×10^7 TMD-8 cells in 200 µl of cell suspension in the right front flank via a 26-gauge needle.
On day 7 after inoculation, animals were randomly divided into 4 groups with 10 mice per group. […] Treatments were administered in a volume of 10 mL/kg body weight, assessed immediately before dosing and the volume dosed was adjusted accordingly. Compound 1 was administered by oral gavage (p.o.) twice daily (BID) and obinutuzumab was administered by intraperitoneal (i.p.) injection once every week (QW). After implantation, primary tumor volume was measured in two dimensions using a calliper.
(§4) Mice were euthanized using carbon dioxide when their tumor volume reached 2,500 mm^3 after twice measurements, the tumor was ulcerated, or body weight loss exceeded 20%.
(§5) Tumor volume was calculated using the formula: V = 0.5 × (a × b^2) where a and b are the long and short diameters of the tumor, respectively. Tumor growth inhibition (TGI) was calculated using the following formula:
(§6) • treated t = treated tumor volume at time t • placebo t = placebo tumor volume at time t

[2] = tested on: A431 epidermoid carcinoma allogeneic model (A431 cells and human PBMCs); assay: Human A431 epidermoid carcinoma allogeneic model (Compound 1 and Mab 1); assay type: in vivo, NOD/SCID mice; conditions: Compound 1 15 mg/kg p.o. BID; Mab 1 10 mg/kg i.p. QW
Method: (§7) On the day of implantation, human peripheral blood mononuclear cells (PBMCs) were isolated from 150 mL blood donated by a healthy volunteer. Briefly, peripheral blood was collected into vacuum blood collection tubes containing sodium heparin. PBMCs were separated by density gradient centrifugation using Histopaque-1077 and washed one time by Dulbecco’s Phosphate Buffered Saline (DPBS). The cell pellet was suspended with DPBS at appropriate volume to give a final concentration of 1×10^8 cells/mL and placed on ice prior to inoculation.
(§8) A431 cells were cultured in DMEM complete medium supplemented with 10% (v/v) fetal bovine serum, and 100 µg/mL of penicillin and streptomycin. On the day of implantation, culture medium was replaced with fresh medium. […]
as §1, with “Starting from” for “On”, “0” for “3”, “after cell” for “after”, “10-11” for “12”
as §2
(§9) Tumor volume was calculated using the formula: V = 0.5 × (a × b^2) where a and b are the long and short diameters of the tumor, respectively.

[3] = tested on: obinutuzumab-induced ADCC (IFN-γ secretion); assay: Obinutuzumab-induced ADCC assessed by IFN-γ secretion in co-culture of NK92MI cells and Mino cells; assay type: cell-based, human; conditions: various concentrations
Method: Mino cells were cultured in RPMI1640 complete medium supplemented with 10% (v/v) fetal bovine serum, and 100 µg/mLof penicillin and streptomycin. NK92MI/CD16V cell line, overexpressing CD16 and FcRγ chain, was established from parental cell line NK92MI. The cells were maintained in MEM alpha supplemented with 0.2 mM inositol; 0.1 mM 2-mercaptoethanol; 0.02 mM folic acid; 1 ×NEAA; adjust to a final concentration of 20% (v/v) fetal bovine serum and 100 µg/mL of penicillin and streptomycin.
0130] Mino cells (2×10^4cells/well) as the target cells (T) were plated into 96-well plate in triplicates. Cells were treated with vehicle or various concentrations of BTK inhibitors for one hour, followed by co-seeding with NK92MI cells (4×10^4cells/well, as the effector cells (E)) and co-treatment with vehicle or obinutuzumab (2 ug/well) for additional 24 hrs. After incubation, the cell-free supernatants of each well were collected, and the levels of human IFN-γ were measured using Human IFN-γ ELISA Ready-SET-Go kit.

[4] = tested on: A431 epidermoid carcinoma allogeneic model (A431 cells and human PBMCs); assay: Human A431 epidermoid carcinoma allogeneic model (Compound 1 and pembrolizumab); assay type: in vivo, NOD/SCID mice; conditions: Compound 1 15 mg/kg p.o. BID; pembrolizumab 10 mg/kg i.p. QW
Method: as §7, with “5× 10^7” for “1×10^8”
as §8
as §1, with “Starting from” for “On”, “0” for “3”, “after cell” for “after”, “10-11” for “12”
as §2, §9

REC-1 MCL xenograft = assay: Human REC-1 MCL xenograft model; assay type: in vivo, mice; conditions: for tumor growth / anti-tumor effect (in words): Compound 1 7.5 mg/kg BID, Ibrutinib 25 mg/kg BID, rituximab 200 µg/dose i.p. Q4D; for Tumor growth inhibition (TGI): Compound 1 7.5 mg/kg p.o. BID, Ibrutinib 25 mg/kg p.o. BID
Method: as §3, with “REC-1” for “TMD-8 DLBCL”, “REC-1.” for “TMD-8 cells.”, “REC-1” for “TMD-8”
On day 9 after inoculation, animals were randomly divided into 6 groups with 7 mice per group. […] After implantation, primary tumor volume was measured in two dimensions using a calliper.
as §4, with “Individual body weight was recorded twice weekly, with mice being monitored daily for clinical signs of toxicity for the duration of the study. Mice” for “Mice”
as §5, §6

[5] = number of mice, 10 mice per group, Compound 1 7.5 mg/kg, obinutuzumab 10 mg/kg

Row | Molecule | Tumor growth inhibition (TGI) (TMD-8 DLBCL xenograft) | Objective responses: total (CR+PR) (TMD-8 DLBCL xenograft; [5]) | anti-tumor effect on tumor volume (in words) [4] | tumor growth / anti-tumor effect (in words) (REC-1 MCL xenograft) | Tumor growth inhibition (TGI) (REC-1 MCL xenograft) | other results
1 | obinutuzumab: anti-CD20 mAb (Gazyva®) [reference compound] | 61% | 2 | – | – | – | anti-tumor effect (in words) [1]: no anti-tumor effect; Objective responses: PR (TMD-8 DLBCL xenograft; [5]): 2
2 | C=CC(=O)N1CCC([C@@H]2CCNc3c(C(N)=O)c(-c4ccc(Oc5ccccc5)cc4)nn32)CC1 [Compound 1, (S)-7-(1-acryloylpiperidin-4-yl)-2-(4-phenoxyphenyl)-4,5,6,7-tetra-hydropyrazolo[1,5-a]pyrimidine-3-carboxamide] | 81% | 5 | Neither Compound 1 nor pembrolizumab showed anti-tumor effect | tumor growth was retarded | 85% | Tumor growth inhibition (TGI) ([1]; day 23): 72%; Objective responses: CR (TMD-8 DLBCL xenograft; [5]): 1; anti-tumor effect on tumor volume (in words) [2]: no anti-tumor effect; inhibition of IFN-γ secretion (in words) [3]: much less effective
3 | C=CC(=O)N1CCC[C@@H](n2nc(-c3ccc(Oc4ccccc4)cc3)c3c(N)ncnc32)C1 [Ibrutinib, reference compound] | – | – | – | – | 83% | –
4 | rituximab: anti-CD20 mAb [reference compound] | – | – | – | tumor growth was retarded | – | –
5 | pembrolizumab: humanized monoclonal IgG4 antibody against PD-1 [reference compound] | – | – | Neither Compound 1 nor pembrolizumab showed anti-tumor effect | – | – | –
